Measured values from ChEMBL document CHEMBL1142058, “Amorphane sesquiterpenes from a marine Streptomyces sp” (J Nat Prod, 2007).
The source made the active and inactive calls.

Key:
Format in all cases: functional, organism-based
[1] = test system: Artemia; assay: Activity against brine shrimp at 10 ug/mL
[2] = test system: Chlorella sorokiniana; assay: Antimicrobial activity against Chlorella sorokiniana at 80 ug/disk
[3] = test system: Rhizomucor miehei; assay: Antifungal activity against Mucor miehei at 80 ug/disk
[4] = test system: Chlorella vulgaris; assay: Antimicrobial activity against Chlorella vulgaris at 80 ug/disk
[5] = test system: Streptomyces viridochromogenes; assay: Antibacterial activity against Streptomyces viridochromogenes Tu 57 at 80 ug/disk
[6] = test system: Desmodesmus subspicatus; assay: Antimicrobial activity against Scenedesmus subspicatus at 80 ug/disk
[7] = test system: Staphylococcus aureus; assay: Antibacterial activity against Staphylococcus aureus at 80 ug/disk
[8] = test system: Candida albicans; assay: Antifungal activity against Candida albicans at 80 ug/disk
[9] = test system: Escherichia coli; assay: Antibacterial activity against Escherichia coli at 80 ug/disk
[10] = test system: Bacillus subtilis; assay: Antibacterial activity against Bacillus subtilis at 80 ug/disk

Measured: Activity

C[C@H]1C(=O)C[C@H]2[C@@H](C1O)[C@@H](C(C)(C)O)CC[C@@]2(C)O (stereo not given in full)
inactive: [1] | [2] | [3] | [4] | [5] | [6] | [7] | [8] | [9] | [10]

CC1=C[C@H]2[C@@H](C(C)(C)O)CC[C@@](C)(O)[C@H]2CC1
inactive: [1] | [2] | [3] | [4] | [5] | [6] | [7] | [8] | [9] | [10]

CC(C)[C@H]1CC[C@@](C)(O)[C@H]2CC(=O)C(CO)=C[C@@H]12
inactive: [1] | [2] | [3] | [4] | [5] | [6] | [7] | [8] | [9] | [10]

CC1=C[C@H]2[C@@H](C(C)C)CC[C@@](C)(O)[C@H]2CC1=O
inactive: [1] | [2] | [3] | [4] | [5] | [6] | [7] | [8] | [9] | [10]
